Source: patent US10166225B2, “Method for treating osteoporosis” (Exelixis, Inc., priority 2011, dated 2019)
Like-named read-outs stand apart in the source and are kept apart here.

Experiments:
[1] = test system: KS483 mouse osteoprogenitor cells; test: Osteoblast activity assay (PINP at day 11, calcium deposition at day 13); format: cell-based; details: for activity at 0.004 µM / activity at 0.012 µM / activity at 0.037 µM / activity at 0.11 µM / activity at 0.33 µM / activity at 1 µM / activity at 3 µM: Mus musculus, Osteoblast; for activity at 0.004 µM: 0.004 μM Compound 1; for activity at 0.012 µM: 0.012 μM Compound 1; for activity at 0.037 µM: 0.037 μM Compound 1; for activity at 0.11 µM: 0.11 μM Compound 1; for activity at 0.33 µM: 0.33 μM Compound 1; for activity at 1 µM: 1.0 μM Compound 1; for activity at 3 µM: 3.0 μM Compound 1
Procedure: The effects on osteoblasts were studied using KS483 mouse osteoprogenitor cells that can be induced to differentiate into bone-forming osteoblasts. […] In the osteoblast differentiation assay, the cells were cultured for 8 days, after which the formed mature osteoblasts were quantitated by measuring the amount of intracellular alkaline phosphatase (ALP) activity. […] A culture system was established that can be used as an in vitro model for studying the effects of anabolic and estrogen-like compounds on osteoblast differentiation and activity. In this culture system mouse KS483 cells first proliferate and then differentiate into osteoblasts capable of forming mineralized bone nodules in the presence of ascorbic acid and ß-glycerophosphate (Fagerlund et al. 2009). The test and reference compounds are added into the cell cultures concomitantly with the medium change, and their effects on the differentiation and activity of osteoblasts are determined. Cellular ALP, a marker of osteoblast differentiation, is determined from the cell lysates as described earlier (Lowry et al. 1954). Secreted PINP, a marker of organic bone matrix formation, is determined from the culture medium using a commercially available method (Rat/Mouse PINP EIA, IDS Ltd, Boldon, UK). Calcium deposition, an index of inorganic bone matrix formation, is measured using a commercially available calcium assay (Roche Diagnostics). Mouse KS483 cells were cultured in T-75 tissue culture flasks in aMEM supplemented with 10% charcoal-stripped fetal bovine serum until 80-90% confluence. The cells were incubated in a CO2 incubator in humidified atmosphere of 95% air and 5% carbon dioxide at 37° C. After reaching 80-90% confluence, subcultures were prepared. Cells were removed from the flasks with trypsin treatment and counted. For induction of the maturation of osteoblasts and bone formation, the immature osteoblastic cells were plated in type I collagen-coated 96-well plates. The cells were cultured for 13 days with a supplement of ascorbic acid (50 μg/ml) and ß-glycerophosphate (5 mM), and half of the media was changed every 3-4 days. The test compound and control substance (E2) were added in the beginning of the culture period and when the medium was changed. Secreted PINP was measured from the culture medium at day 11 as a marker of organic bone matrix formation. The cultures were stopped at day 13 by removing the culture media from the wells and adding hydrochloric acid. Calcium deposited into the formed bone matrix was quantitated by using VICTOR2™ Multilabel Counter (PerkinElmer, Waltham, Mass., USA).

[2] = test system: human bone marrow-derived CD34+ osteoclast precursor cells; test: Osteoclast differentiation assay (secreted TRACP 5b at day 7); format: cell-based
Procedure: The study was performed in four parts. In the first part, human bone marrow-derived CD34+ osteoclast precursor cells were cultured on bovine bone slices for 7 days, after which the formed osteoclasts were quantitated by measuring tartrate-resistant acid phosphatase 5b activity (TRACP 5b) in the culture medium.
The objective of this study was to investigate the effects of Compound 1 selected by the Sponsor on differentiation and activity of human osteoclasts and mouse osteoblasts in vitro. The effects on osteoclasts were studied using a model where bone marrow-derived human osteoclast precursor cells are cultured on bovine bone slices for 7 days in conditions favouring osteoclast differentiation, and allowed to differentiate into bone-resorbing osteoclasts. After completion of osteoclast differentiation at day 7, the culture medium was removed and new culture medium favouring osteoclast activity was added into the wells. The mature osteoclasts were then cultured for an additional 3 days, allowing them to resorb bone. In the osteoclast differentiation assay, the test compounds and a reference inhibitor osteoprotegerin (OPG) were added into cultures at day 0. In the osteoclast activity assay, the test compounds and a reference inhibitor E64 were added into cultures at day 7. Seven concentrations in 8 replicates were tested in both assays. Tartrate-resistant acid phosphatase 5b activity (TRACP 5b) was measured from the culture medium collected at day 7 as an index of the number of osteoclasts formed in each well during the differentiation period. C-terminal cross-linked telopeptides of type I collagen (CTX) was measured from the culture medium collected at day 10 to quantitate bone resorption during days 7-10.
A human osteoclast culture system was developed for use in this study where CD34+ osteoclast precursor cells derived from human bone marrow (Poietics® Human Osteoclast Precursors, Lonza, Walkersville, USA) are cultured on bovine bone slices in the presence of appropriate growth factors, including M-CSF and RANK-ligand (Rissanen et al. 2009). The cells are first allowed to differentiate into mature bone-resorbing osteoclasts, and the formed osteoclasts are then allowed to resorb bone. The test and reference compounds are added into the cell cultures at the beginning of the differentiation and/or the resorption period, and their effects on the differentiation and/or resorbing activity of osteoclasts are determined.
Secreted TRACP 5b is determined from the culture medium after the differentiation period using a commercially available method (BoneTRAPÒ, IDS Ltd, Boldon, UK). Secreted TRACP 5b describes accurately the number of osteoclasts formed in each well during the differentiation period. CTX is determined from the culture medium after the resorption period using a commercially available method (CrossLapsÒ for cultures, IDS Ltd, Boldon, UK). CTX describes accurately the amount of bone collagen degradation products released into the culture medium in each well during the resorption period.
In this study, human bone marrow-derived CD34+ stem cells (10000 cells/well) were suspended in culture medium and allowed to attach to bovine bone slices in 96-well tissue culture plates. The culture medium (containing 10% FBS, OCP BulletKit® Lonza, Walkersville, USA) was supplemented with appropriate amounts of important growth factors favoring osteoclast differentiation and activity, including M-CSF (33 ng/ml, OCP BulletKit® Lonza, Walkersville, USA) and RANK-ligand (66 ng/ml, OCP BulletKit® Lonza, Walkersville, USA) in 200 μl of medium. The cells were incubated in a CO2 incubator in humidified atmosphere of 95% air and 5% carbon dioxide at 37° C. for 7 days. The test compounds and reference compound OPG were added at day 0. Supernatants collected at day 7 were stored at −70° C. until analysis of TRACP 5b. TRACP 5b was measured from the culture medium (20 μl/sample) using VICTOR2™ Multilabel Counter (PerkinElmer, Waltham, Mass., USA). […]

[3] = 0.004, 0.012, 0.037 and 0.11 μM
[4] = 264 h, read-out: PINP Activity at Day 11, Percent Activity (%) Compared to BL
[5] = 312 h, read-out: Calcium Deposition at Day 13, Percent Activity (%) Compared to BL

For `COc1cc2nccc(Oc3ccc(NC(=O)C4(C(=O)Nc5ccc(F)cc5)CC4)cc3)c2cc1OC` [Compound 1, N-(4-{[6,7-bis(methyloxy)quinolin-4-yl]oxy}phenyl)-N′-(4-fluorophenyl)cyclopropane-1,1-dicarboxamide], the “bone forming activity of osteoblasts” value [1, 3] was “dose-dependent stimulation”, the calcium values [1, 3] was “increased” and the PINP values ([1]; 0.012 and 0.037 μM) was “increased”. For the same compound, the PINP values ([1]; 0.33, 1.0 and 3.0 μM) was “decreased”, the “bone forming activity of osteoblasts” value ([1]; 0.33, 1.0 and 3.0 μM) was “inhibitory effects” and the calcium values ([1]; 0.33, 1.0 and 3.0 μM) was “decreased”. The activity at 0.004 µM [1, 4] was 117%, the activity at 0.012 µM [1, 4] was 122% and the activity at 0.037 µM [1, 4] was 135%. It also gave an activity at 0.11 µM [1, 4] of 101%, an activity at 0.33 µM [1, 4] of 73% and an activity at 1 µM [1, 4] of 42%. The activity at 3 µM [1, 4] was 21%, the activity at 0.004 µM [1, 5] was 145% and the activity at 0.012 µM [1, 5] was 167%. The activity at 0.037 µM [1, 5] was 180%, the activity at 0.11 µM [1, 5] was 144% and the activity at 0.33 µM [1, 5] was 59%. The activity at 1 µM [1, 5] was 12%, the activity at 3 µM [1, 5] was 4% and the “number of Hoechst and TRACP positive mononuclear cells (microscopic analysis)” value ([2]; 0.11 and 0.33 μM) was “did not affect”. The “number of Hoechst and TRACP positive mononuclear cells (microscopic analysis)” value ([2]; 1.0 and 3.0 μM, effects at least partly cytotoxic) was “decreased”, the activity at 0.004 µM ([2]; Homo sapiens, Osteoclast, 168 h, 0.004 μM Compound 1, read-out: TRACP 5b Activity at Day 7, Percent Activity (%) Compared to BL) was 85% and the activity at 0.012 µM ([2]; Homo sapiens, Osteoclast, 168 h, 0.012 μM Compound 1, read-out: TRACP 5b Activity at Day 7, Percent Activity (%) Compared to BL) was 80%. It also gave an activity at 0.037 µM ([2]; Homo sapiens, Osteoclast, 168 h, 0.037 μM Compound 1, read-out: TRACP 5b Activity at Day 7, Percent Activity (%) Compared to BL) of 74%, an activity at 0.11 µM ([2]; Homo sapiens, Osteoclast, 168 h, 0.11 μM Compound 1, read-out: TRACP 5b Activity at Day 7, Percent Activity (%) Compared to BL) of 45% and an activity at 0.33 µM ([2]; Homo sapiens, Osteoclast, 168 h, 0.33 μM Compound 1, read-out: TRACP 5b Activity at Day 7, Percent Activity (%) Compared to BL) of 15%. The activity at 1 µM ([2]; Homo sapiens, Osteoclast, 168 h, 1.0 μM Compound 1, read-out: TRACP 5b Activity at Day 7, Percent Activity (%) Compared to BL) was 4%, the activity at 3 µM ([2]; Homo sapiens, Osteoclast, 168 h, 3.0 μM Compound 1, read-out: TRACP 5b Activity at Day 7, Percent Activity (%) Compared to BL) was 0% and the “effect on osteoclast differentiation” value ([2]; significant with 0.11, 0.33, 1.0 and 3.0 μM concentrations) was “dose-dependent inhibition”.
